Among the data in US10766869B2, “Triazoles for the treatment of demyelinating dieases” (Vertex Pharmaceuticals Incorporated, priority 2015, dated 2020) are fold induction values, retold here.

SMILES strings stand for the structures. Like-named read-outs stand apart in the source and are kept apart here. Where only a bound is given, the exact number is not on record here.

This experiment has as its system primary rat mixed cortical cells. As to the kind of experiment: In vitro myelination assay (MBP positive myelin strands, fold myelin pixels above background). It is filed as cell-based. The following applies: Rattus norvegicus; for fold induction at 1 µM: 1.0 μM compound; for fold induction at 10 µM: 10.0 μM compound. Summed up:
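Compounds at 1.0 and 10.0 μM were incubated 14 days with dissociated P1 rat cortical cells, which were then fixed and immunostained for MBP. Myelination was scored as fold MBP myelin pixels per well over the no-compound baseline.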

[1] abbreviates: relative to baseline of no added compound, read-out: Fold myelin pixels above background, 1.0 μM.
The mark [2] stands for this setting: relative to baseline of no added compound, read-out: Fold myelin pixels above background, 10.0 μM.
Setting [3] is: read-out: Fold myelin pixels above background relative to baseline of no added compound.
Setting [4] is: relative to baseline of no added compound, read-out: Fold myelin pixels above background.

Regarding `Cc1cc(Nc2ncn(-c3ccccc3)n2)cc(C2CCN(CC(F)F)C2)c1` (stereo not shown) [Compound 273, N-[3-[1-(2,2-difluoroethyl)pyrrolidin-3-yl]-5-methyl-phenyl]-1-phenyl-1,2,4-triazol-3-amine], under setting [1], the fold induction at 1 µM was 1000 to 10000. The fold induction at 10 µM under setting [2] is not above 1.
Turning to `Cc1cc(NCC2CN(C(=O)OC(C)(C)C)C2)cc(Nc2ncn(-c3cc(F)cc(F)c3)n2)c1` [Compound 1084, tert-butyl 3-[[3-[[1-(3,5-difluorophenyl)-1,2,4-triazol-3-yl]amino]-5-methyl-anilino]methyl]azetidine-1-carboxylate], under setting [3], the fold induction at 1 µM is 10 to 100 and the fold induction at 10 µM is 1 to 10.
As to `CC1(N2CCN(c3cc(C(F)F)cc(Nc4ncn(-c5cc(F)cc(F)c5)n4)n3)CC2)COC1` [Compound 716, 4-(difluoromethyl)-N-[1-(3,5-difluorophenyl)-1,2,4-triazol-3-yl]-6-[4-(3-methyloxetan-3-yl)piperazin-1-yl]pyridin-2-amine], under setting [4], the fold induction at 1 µM fell in the range of 1 to 10 and the fold induction at 10 µM fell in the range of 100 to 1000.
As to `[2H]C1([2H])N(C(=O)C2CC2)C([2H])([2H])C([2H])([2H])N(c2cc(Nc3ncn(-c4cc(F)cc(F)c4)n3)cc(C(F)(F)F)c2)C1([2H])[2H]` [Compound 883, cyclopropyl-[2,2,3,3,5,5,6,6-octadeuterio-4-[3-[[1-(3,5-difluorophenyl)-1,2,4-triazol-3-yl]amino]-5-(trifluoromethyl)phenyl]piperazin-1-yl]methanone], under setting [3], the fold induction at 1 µM was 10 to 100 and the fold induction at 10 µM lay within 1 to 10.
`Cc1cc(Nc2ncn(-c3cc(F)cc(F)c3)n2)cc([C@]2(C)CN(C3COC3)CCO2)c1` (single isomer, unassigned) [Compound 750]: under setting [4], the fold induction at 1 µM was in the range of 1 to 10 and the fold induction at 10 µM lay in the range of 10 to 100.
Regarding `Cc1cc(Nc2ncn(-c3ccnc(Cl)c3)n2)cc(N2CCCC2)c1` [Compound 42, 1-(2-chloro-4-pyridyl)-N-(3-methyl-5-pyrrolidin-1-yl-phenyl)-1,2,4-triazol-3-amine], the fold induction at 1 µM under setting [1] was 10 to 100. For the same compound, under setting [2], the fold induction at 10 µM was in the range of 100 to 1000.
Take `Fc1cc(F)cc(-n2cnc(Nc3cc(N4CCN(C5COC5)CC4)cc(C(F)(F)F)c3)n2)c1` [Compound 130, 1-(3,5-difluorophenyl)-N-[3-[4-(oxetan-3-yl)piperazin-1-yl]-5-(trifluoromethyl)phenyl]-1,2,4-triazol-3-amine]: the fold induction at 1 µM under setting [1] was in the range of 1000 to 10000. The fold induction at 10 µM under setting [2] was 100 to 1000.
As for `Cc1cc(NCCN2CC(C)OCC2C)cc(Nc2ncn(-c3cc(F)cc(F)c3)n2)c1` (stereo not shown) [Compound 1003, N1-[1-(3,5-difluorophenyl)-1,2,4-triazol-3-yl]-N3-[2-(2,5-dimethylmorpholin-4-yl)ethyl]-5-methyl-benzene-1,3-diamine], under setting [3], the fold induction at 1 µM was 10 to 100 and the fold induction at 10 µM is not above 1.
Take `Fc1cc(F)cc(-n2cnc(Nc3cc(N4CCN(C5COC5)CC4)cc(N4CC(N5CCOCC5)C4)c3)n2)c1` [Compound 701, 1-(3,5-difluorophenyl)-N-[3-(3-morpholinoazetidin-1-yl)-5-[4-(oxetan-3-yl)piperazin-1-yl]phenyl]-1,2,4-triazol-3-amine]: under setting [4], the fold induction at 1 µM was in the range of 10 to 100 and the fold induction at 10 µM is not above 1.
On to `Cc1cc(Nc2ncn(-c3cc(F)cc(F)c3)n2)cc(C(=O)N2CCN(C3COC3)CC2)c1` [Compound 864, [3-[[1-(3,5-difluorophenyl)-1,2,4-triazol-3-yl]amino]-5-methyl-phenyl]-[4-(oxetan-3-yl)piperazin-1-yl]methanone], for which, under setting [3], the fold induction at 1 µM lay within 10 to 100 and the fold induction at 10 µM was 10 to 100.
On to `Cc1cc(Nc2ncn(-c3cc(F)cc(F)c3)n2)cc(OCc2ccn(C)n2)c1` [Compound 605, 1-(3,5-difluorophenyl)-N-[3-methyl-5-[(1-methylpyrazol-3-yl)methoxy]phenyl]-1,2,4-triazol-3-amine], for which, under setting [4], the fold induction at 1 µM lay in the range of 10 to 100 and the fold induction at 10 µM is 10 to 100.
